# Test results: patent US8071535B2, “Guanidinium derivatives for improved cellular transport” (The Regents of the University of California, priority 2003, dated 2011)
# Marks after values point to notes of the source that are not given here.
# Key:
# [1] = tested on: 10T½ cells; test: Competition experiment: uptake of BODIPY-Cys(Arg)9 in presence of unlabeled guanidino-neomycin B (6), FACS; assay type: cell-based, mouse
# Description: (§1) Compounds 1-5 identified in Table 1, below (0.5-1 μM), were added to each dish and incubated at 37° C./8% CO2 for 0.5-1 hr. Cells were then washed once in PBS, trypsinized with 500 μl ATV solution (Gibco) for 3 minutes, pelleted in a fixed angle centrifuge for 5 minutes at 5,000×G, then brought up in 1 mL PBS. Each sample was quickly (within 5 minutes) analyzed on a FACS VantageSE cell sorter (Becton-Dickinson) using the 488 nm argon/krypton laser line and a 530 nm band pass emission filter. 2,000-10,000 cells were counted per sample.
# (§2) Examples of FACS histograms are presented in FIG. 3, which illustrates the fluorescence intensity versus cell count for 10,000 individual 10T½ cells following a 1 hour incubation with 0.5 μM of: (A) tobra-BODIPY (Red) and guanidine-tobra-BODIPY (White); (B) neo-BODIPY (Red) and guanidine-neo-BODIPY (White); (C) BODIPY-Cys(Arg)9 (Red), or guanidine-neo-BODIPY (White); and (D) uptake of BODIPY-Cys(Arg)9 inhibited by guanidine-neomycin B (6) at 0 μM (Red), 10 μM (Black), 200 μM (Green).
# [2] = tested on: Rev-Response-Element (RRE); conditions: in words; cited from earlier work
# [3] = tested on: 10T½ cells; test: Cellular uptake by FACS, 10T½ cells; assay type: cell-based, mouse; conditions: for Enhancement of cellular uptake upon guanidinylation: relative to autofluorescence, guanidinoglycoside-BODIPY vs aminoglycoside-BODIPY; for Mean Fluorescence Intensities of Treated Cells According to FACS, 10T1/2: 0.5 μM of each compound for 1 hr, average intensity of 10,000 individual cells; for Cellular uptake / transport efficiency compared to poly-Arg peptide BODIPY-Cys(Arg)9 (5) / Cellular uptake (in words): FACS; for Cellular uptake / transport efficiency compared to poly-Arg peptide BODIPY-Cys(Arg)9 (5): in words; for Cellular uptake (in words): slightly above the autofluorescence of the cell itself
# Description: (§3) 10T½ cells, an adherent non-transformed mouse fibroblast cell line, were purchased from ATCC and used before their 20th passage. HeLa cells, a common human cancer cell line, were a gift from Dr. Susan S. Taylor. Both cell lines were cultured in Dulbecco's modified eagle medium containing 10% fetal bovine serum at 37° C. in an 8% CO2 environment. For each experiment, cells were seeded onto 4 cm tissue culture plates (Nunc) and allowed to grow overnight to […].
# as §1, §2
# (§4) In a typical experiment, cell cultures were treated with 0.5-5 μM of each compound for 0.5-1 hr, washed twice with buffer, cleaved with trypsin, and quantified for fluorescence at 530 nm.
# [4] = tested on: HeLa cells; test: Cellular uptake by FACS, HeLa cells; assay type: cell-based, human; conditions: 1 μM of each compound for 0.5 hr; average intensity of 2,000 individual cells; about 10-fold higher instrumental gain than 10T1/2
# Description: as §3, §1, §4
# [5] = tested on: HeLa cells; test: Scanning confocal fluorescence microscopy, cellular localization; assay type: cell-based, human; conditions: confocal cross sections of living cells; 5 μM, 30 minute treatment
# Description: The uptake of BODIPY-containing glycosides by two different eukaryotic cell lines was also studied using fluorescence microscopy.
# as §4
# (A) and (B) show cross-sectional images of two individual HeLa cells in solution following a 30 minute treatment with 5 μM of guanidine-neo-BODIPY and cleavage with trypsin.
# Microscopy experiments have been conducted using both fluorescein-labeled and BODIPY-labeled guanidinoglycosides. The relative intensities of individual cells, following treatment with either fluorescent aminoglycosides or guanidinoglycosides are consistent with the trends from FACS experiments.
molecule,measurement,setting,value
"NC(N)=NC[C@@H]1O[C@H](O[C@H]2[C@@H](O)[C@H](O[C@@H]3[C@H](O)[C@@H](N=C(N)N)C[C@@H](N=C(N)N)[C@H]3O[C@H]3O[C@H](CN=C(N)N)[C@@H](O)[C@H](O)[C@H]3N=C(N)N)O[C@@H]2CO)[C@H](N=C(N)N)[C@@H](O)[C@@H]1O [guanidine-neomycin B (6, guanidino-neomycin B]",Inhibition of the transport of BODIPY-Cys(Arg)9 into cells,"[1]; FACS, unlabeled competitor 10-200 μM, in words",effectively inhibits
same,Affinity to the RRE,[2],substantial affinity
"NC[C@@H]1O[C@H](O[C@H]2[C@@H](O)[C@H](O[C@@H]3[C@@H](O)[C@H](N)C[C@H](N)[C@H]3O[C@H]3O[C@H](CN)[C@@H](O)[C@H](O)[C@H]3N)O[C@@H]2CO)[C@H](N)[C@@H](O)[C@@H]1O [neomycin B, reference compound]",Enhancement of cellular uptake upon guanidinylation,[3],approximately 20 fold
"NC[C@H]1O[C@H](O[C@H]2[C@H](O)[C@@H](O[C@H]3O[C@H](CO)[C@@H](O)[C@H](N)[C@H]3O)[C@H](N)C[C@@H]2N)[C@H](N)C[C@@H]1O [tobramycin, reference compound]",Enhancement of cellular uptake upon guanidinylation,[3],approximately 10 fold
"BODIPY-Cys(Arg)9 hydrochloride (CRRRRRRRRR; N-acetyl, C-amide, BODIPY on Cys) [BODIPY-Cys (Arg)9 (5), poly-Arg transduction peptide ace-…-am labelled with BODIPY on Cys]","Mean Fluorescence Intensity, 10T1/2, in presence of 10 μM (6)","[1]; 0.5 μM (5) + 10 μM guanidino-neomycin B (6), 1 hr",110
same,"Mean Fluorescence Intensity, 10T1/2, in presence of 50 μM (6)","[1]; 0.5 μM (5) + 50 μM guanidino-neomycin B (6), 1 hr",90
same,"Mean Fluorescence Intensity, 10T1/2, in presence of 200 μM (6)","[1]; 0.5 μM (5) + 200 μM guanidino-neomycin B (6), 1 hr",70
same,"Mean Fluorescence Intensities of Treated Cells According to FACS, HeLa",[4],"2,000"
same,"Mean Fluorescence Intensities of Treated Cells According to FACS, 10T1/2",[3],280
guainidino-tobra-BODIPY hydrochloride [Guanidino-Tobra-BODIPY (2)],"Mean Fluorescence Intensities of Treated Cells According to FACS, HeLa",[4],"2,100"
same,"Mean Fluorescence Intensities of Treated Cells According to FACS, 10T1/2",[3],240
same,Cellular uptake / transport efficiency compared to poly-Arg peptide BODIPY-Cys(Arg)9 (5),[3],approximately the same transport efficiency
guanidino-Neo-BODIPY hydrochloride [Guanidino-Neo-BODIPY (4)],Cellular localization,[5],two distinct types of cellular localization
same,"Mean Fluorescence Intensities of Treated Cells According to FACS, HeLa",[4],"7,900"
same,"Mean Fluorescence Intensities of Treated Cells According to FACS, 10T1/2",[3],430
same,Cellular uptake / transport efficiency compared to poly-Arg peptide BODIPY-Cys(Arg)9 (5),[3],better cellular uptake
guanidino-tobramycin,Affinity to the RRE,[2],substantial affinity
neo-BODIPY hydrochloride [Neo-BODIPY (3)],"Mean Fluorescence Intensities of Treated Cells According to FACS, HeLa",[4],"~1,400^(e)"
same,"Mean Fluorescence Intensities of Treated Cells According to FACS, 10T1/2",[3],60
same,Cellular uptake (in words),[3],poor cellular uptakes
tobra-BODIPY hydrochloride [Tobra-BODIPY (1)],"Mean Fluorescence Intensities of Treated Cells According to FACS, HeLa",[4],"1,000"
same,"Mean Fluorescence Intensities of Treated Cells According to FACS, 10T1/2",[3],60
same,Cellular uptake (in words),[3],poor cellular uptakes
